Laboratory results: US7323596B2, “Antimicrobial agents” (De Novo Pharmaceuticals Ltd., priority 2000, dated 2008)
In brackets after ≈: the same amount, converted by molar mass.

Key:
Haemophilia influenza = test: MIC by standard agar plate dilution method; assay type: cell-based
Method: The susceptibilities of strains of bacteria to the compound of Example 1 were determined by a standard agar plate dilution method following recommendations in British Society for Antimicrobial Chemotherapy Working Party. 1991, “A guide to sensitivity testing British Society for Antimicrobial Chemotherapy, London, United Kingdom”. Briefly, Iso-Sensitest agar (pH 7.2: Oxoid, United Kingdom) is employed, supplemented with 5% horse blood (Oxoid) and 20 μg of NAD (Sigma) per ml are added to support growth of fastidious bacteria. The inoculum used is approximately 10^4 colony forming units of each isolate contained in a volume of 1 μl. Plates are incubated 18 to 24 hr in air, or for fastidious bacteria an atmosphere enriched with 4-6% carbon dioxide at 35° C. The MIC is determined as the lowest concentration of an Antimicrobial tested that inhibited growth of the inoculum, disregarding a single persisting colony or faint haze caused by the inoculation.

E coli PDF (Ni) = E coli PDF (Ni) (Escherichia coli, UniProt P0A6K3); test: inhibition of the PDF E. coli (Ni) enzyme; assay type: biochemical; conditions: Ni form of E. coli PDF enzyme
Chain of E coli PDF (Ni) (P0A6K3 whole entry): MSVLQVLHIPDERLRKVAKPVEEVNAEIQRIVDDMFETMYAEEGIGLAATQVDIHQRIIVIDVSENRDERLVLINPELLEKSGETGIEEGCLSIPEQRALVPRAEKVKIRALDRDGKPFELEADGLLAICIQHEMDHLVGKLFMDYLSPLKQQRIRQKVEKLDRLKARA
Method: Examples 2-5 were prepared in a manner analogous to example 1. Also shown is there inhibition of the PDF E. coli(Ni) enzyme.

`CCCC[C@H](CN(O)C=O)NC(=O)Cc1cccc2ccccc12` [Example 1, N-{1R-[(Formyl-hydroxy-amino)-methyl]-pentyl}2-naphthalen-1-yl-acetamide] was tested. Which MIC (Haemophilia influenza) did it give?
Its MIC is 0.5 to 2 µg/mL (≈ 1.52 to 6.09 µM).

With `CCCC[C@H](CN(O)C=O)NC(=O)c1cn(CC)c2cc3c(cc2c1=O)OCO3` [Example 2, 5-Ethyl-8-oxo-5,8-dihydro-[1,3]dioxolo[4,5]quinoline-7-carboxylic acid {1R-[(formyl-hydroxy-amino)-methyl]-pentyl}amide] as the molecule, how does the IC50 (E coli PDF (Ni)) read?
The IC50 was 30 nM.

`CCCC[C@H](CN(O)C=O)NC(=O)c1cn(C2CCCCC2)c2ccccc2c1=O` [Example 3, 1-Cyclohexyl-4-oxo-1,4-dihydro-quinoline-3-carboxylic acid {1R[(formyl-hydroxy-amino)-methyl]-pentyl}-amide] was tested. Which IC50 (E coli PDF (Ni)) did it give?
Its IC50 is 60 nM.

Which IC50 (E coli PDF (Ni)) does the source give for `CCCC[C@H](CN(O)C=O)NC(=O)c1cn(CC)c2ccc(Cl)cc2c1=O` [Example 4, 6-Chloro-1-ethyl-4-oxo-1,4-dihydro-quinoline-3-carboxylic acid {1R[(formyl-hydroxy-amino)-methyl]-pentyl}-amide] here?
Its IC50 is 20 nM.

With `CCCC[C@H](CN(O)C=O)NC(=O)c1coc2ccccc2c1=O` [Example 5, 4-Oxo-4H-chromene-3-carboxylic acid {1R-[(formyl-hydroxy-amino)-methyl]-pentyl}amide] as the molecule, how does the IC50 (E coli PDF (Ni)) read?
The IC50 was 200 nM.
